“And” between values parts separate entries of the source, which are not always exact repeats. Equal values may be shown once. Read-outs that look alike come from different tables or passages of the source.
How the values were obtained:
wtCaM = wtCaM (Homo sapiens, UniProt P0DP23); assay: Binding capacity of metal ions to wtCaM monitored by MspA nanopore trapping
M2 MspA = system: M2 MspA; parameters: species or system Mycobacterium smegmatis; conditions: for mean dwell time (τoff), mean ± std / mean interevent duration time (τon), mean ± std: N=3
[1] = […] KCl/1.0M CaCl2, +100 mV, listed as LYSOZYME
[2] = […] KCl/[…] KCl, +100 mV, listed as LYSOZYME
[3] = […] KCl/[…] KCl, +100 mV, listed as APO-MYOGLOBIN

With `[Ba+2]` [Ba^2+] the “Proportion of Apo-wtCaM events” value (wtCaM) was 95.6 ± 2.9%, the “Proportion of Holo-wtCaM events (binding capacity)” value (from here on “Proportion of Holo-wtCaM events”) (wtCaM) was 4.4% and 4.4 ± 2.9% and the “binding capacity to wtCaM, in words” value (wtCaM) was “poor binding capacity”. The “ΔI/I0 of Apo-wtCaM events” value (wtCaM) was 51.6 ± 0.6% and the “ΔI/I0 of Holo-wtCaM events” value (wtCaM) was 86.9 ± 1.0%.

In the case of `[Ca+2]` [Ca^2+], the “ion concentration that fully activates wtCaM” value (wtCaM; 0.3 μM wtCaM) is reported as 0.6 mM, the “Proportion of Apo-wtCaM events” value (wtCaM; 2 mM ion, 0.6 μM wtCaM) is reported as 21.2 ± 3.1% and the “Proportion of Holo-wtCaM events” value (wtCaM; 2 mM ion, 0.6 μM wtCaM) is reported as 54% and 54.1 ± 4.8%. The “Proportion of Transient States events” value (wtCaM; 2 mM ion, 0.6 μM wtCaM) was 24.8 ± 2.7%, the “ΔI/I0 of Apo-wtCaM events” value (wtCaM; 2 mM ion, 0.6 μM wtCaM) was 56.8±1.1% and the “ΔI/I0 of Holo-wtCaM events” value (wtCaM; 2 mM ion, 0.6 μM wtCaM) was 90.4±0.2%. For the same molecule, the “ΔI/I0 of Transient States events” value (wtCaM; 2 mM ion, 0.6 μM wtCaM) was 75.0±2.1% and the “binding capacity to wtCaM, in words” value (wtCaM; nanopore trapping) was “strong binding affinity”.

With `[Mg+2]` [Mg^2+] the “Proportion of Apo-wtCaM events” value (wtCaM; 2 mM ion, 0.6 μM wtCaM) was 96.0 ± 1.7%, the “Proportion of Holo-wtCaM events” value (wtCaM; 2 mM ion, 0.6 μM wtCaM) was 4.0% and 4.0 ± 1.7% and the “ΔI/I0 of Apo-wtCaM events” value (wtCaM; 2 mM ion, 0.6 μM wtCaM) was 52.6 ± 0.4%. The “ΔI/I0 of Holo-wtCaM events” value (wtCaM; 2 mM ion, 0.6 μM wtCaM) was 88.8 ± 1.1% and the “binding capacity to wtCaM, in words” value (wtCaM; nanopore trapping) was “poor binding capacity”.

In the case of `[Pb+2]` [Pb^2+], the “Proportion of Holo-wtCaM events” value (wtCaM) is reported as 62.0±3.1%, the “Proportion of Transient States events” value (wtCaM) is reported as 38.0 ± 3.1% and the “binding capacity to wtCaM, in words” value (wtCaM) is reported as “even stronger than that of Ca^2+”. For the same molecule, the “ΔI/I0 of Holo-wtCaM events” value (wtCaM) was 90.6 ± 0.7% and the “ΔI/I0 of Transient States events” value (wtCaM) was 77.91 ± 0.13%.

`[Sr+2]` [Sr^2+] was tested, and the “Proportion of Apo-wtCaM events” value (wtCaM; 2 mM ion, 0.6 μM wtCaM) was 73.1 ± 1.4%, the “Proportion of Holo-wtCaM events” value (wtCaM; 2 mM ion, 0.6 μM wtCaM) was 14.0±2.4% and the “Proportion of Transient States events” value (wtCaM; 2 mM ion, 0.6 μM wtCaM) was 12.6 ± 0.4%. The “ΔI/I0 of Apo-wtCaM events” value (wtCaM; 2 mM ion, 0.6 μM wtCaM) was 54.0 ± 0.5%, the “ΔI/I0 of Holo-wtCaM events” value (wtCaM; 2 mM ion, 0.6 μM wtCaM) was 90.22 ± 0.16% and the “ΔI/I0 of Transient States events” value (wtCaM; 2 mM ion, 0.6 μM wtCaM) was 75.7 ± 1.5%. For the same molecule, the “binding capacity to wtCaM, in words” value (wtCaM; nanopore trapping) was “slightly better binding capacity to wtCaM than that of Mg^2+ or Ba^2+”.

For `[Tb+3]` [Tb^3+], the “ion concentration that fully activates apo-wtCaM” value (wtCaM; 0.3 μM apo-wtCaM) was 5 µM, the “concentration regime in which Tb-wtCaM events were observed” value (wtCaM; 0.3 μM wtCaM) was 0.05 to 120 µM and the “concentration regime in which the pre-aggregated state was observed” value (wtCaM; 0.3 μM wtCaM) was 15 to 200 µM. For the same molecule, the “ion concentration with complete disappearance of events (aggregation of wtCaM)” value (wtCaM; 0.3 μM wtCaM) was 500 µM and the “binding capacity to wtCaM, in words” value (wtCaM; nanopore trapping) was “stronger than that of Ca^2+”.

With “lysozyme: lysozyme from chicken egg white, representative basic protein” the 1/τon (M2 MspA; +60 mV, […] KCl/1.0M CaCl2) was “(1.0 ± 0.2) × 10^−2 MS^−1”, the τoff (M2 MspA; +60 mV, […] KCl/1.0M CaCl2) was 35.5 ± 0.9 MS and the 1/τon (M2 MspA; +80 mV, […] KCl/1.0M CaCl2) was “(1.4 ± 0.4) × 10^−2 MS^−1”. The τoff (M2 MspA; +80 mV, […] KCl/1.0M CaCl2) was 47.8 ± 6.7 MS, the 1/τon (M2 MspA; +100 mV, […] KCl/1.0M CaCl2) was “(1.8 ± 0.2) × 10^−2 MS^−1” and the τoff (M2 MspA; +100 mV, […] KCl/1.0M CaCl2) was 47.3 ± 3.5 MS. For the same molecule, the 1/τon (M2 MspA; +120 mV, […] KCl/1.0M CaCl2) was “(1.8 ± 0.3) × 10^−2 MS^−1”, the τoff (M2 MspA; +120 mV, […] KCl/1.0M CaCl2) was 38.8 ± 8.9 MS and the “mean dwell time (τoff), mean ± std” value (M2 MspA; […] KCl/1.0M CaCl2, +100 mV) was 47.3±3.5 MS. For the same molecule, the “mean interevent duration time (τon), mean ± std” value (from here on “mean interevent duration time”) (M2 MspA; […] KCl/1.0M CaCl2, +100 mV) was 38.0±11.0 MS, the “mean dwell time (τoff), mean ± std” value (M2 MspA; [1]) was 47.3 ± 3.5 MS and the “mean interevent duration time” value (M2 MspA; [1]) was 38.0 ± 11.0 MS. The “mean dwell time (τoff), mean ± std” value (M2 MspA; […] KCl/[…] KCl, +100 mV) was 5.4±0.2 MS, the “mean interevent duration time” value (M2 MspA; […] KCl/[…] KCl, +100 mV) was 460.7±51.2 MS and the “mean dwell time (τoff), mean ± std” value (M2 MspA; [2]) was 5.4 ± 0.2 MS. The “mean interevent duration time” value (M2 MspA; [2]) was 460.7 ± 51.2 MS, the 1/τon (M2 MspA; concentration 0.21 (MM), +100 mV) was “(6.4 ± 2.6) × 10^−3 MS^−1” and the 1/τon (M2 MspA; concentration 0.42 (MM), +100 mV) was “(2.8 ± 0.8) × 10^−2 MS^−1”. For the same molecule, the 1/τon (M2 MspA; concentration 0.63 (MM), +100 mV) was “(4.2 ± 1.2) × 10^−2 MS^−1” and the 1/τon (M2 MspA; concentration 0.83 (MM), +100 mV) was “(5.5 ± 0.7) × 10^−2 MS^−1”.

B1: apo-myoglobin: heme-free myoglobin from equine skeletal muscle (protein, UniProt P68082 2-154, looked up)
Myoglobin: GLSDGEWQQVLNVWGKVEADIAGHGQEVLIRLFTGHPETLEKFDKFKHLKTEAEMKASEDLKKHGTVVLTALGGILKKKGHHEAELKPLAQSHATKHKIPIKYLEFISDAIIHVLHSKHPGDFGADAQGAMTKALELFRNDIAAKYKELGFQG
modifications: heme-free apo form
notes: heme-free myoglobin from equine skeletal muscle
With B1 the 1/τon (M2 MspA; +60 mV, […] KCl/1.0M CaCl2) was “(1.0 ± 0.3) × 10^−3 MS^−1”, the τoff (M2 MspA; +60 mV, […] KCl/1.0M CaCl2) was 99.3 ± 20.2 MS and the 1/τon (M2 MspA; +80 mV, […] KCl/1.0M CaCl2) was “(2.0 ± 0.5) × 10^−3 MS^−1”. The τoff (M2 MspA; +80 mV, […] KCl/1.0M CaCl2) was 317.5 ± 18.3 MS, the 1/τon (M2 MspA; +100 mV, […] KCl/1.0M CaCl2) was “(2.8 ± 0.3) × 10^−3 MS^−1” and the τoff (M2 MspA; +100 mV, […] KCl/1.0M CaCl2) was 531.0 ± 27.5 MS. The 1/τon (M2 MspA; +120 mV, […] KCl/1.0M CaCl2) was “(4.5 ± 0.6) × 10^−3 MS^−1”, the τoff (M2 MspA; +120 mV, […] KCl/1.0M CaCl2) was 522.0 ± 15.0 MS and the “mean dwell time (τoff), mean ± std” value (M2 MspA; […] KCl/1.0M CaCl2, +100 mV) was 531.0±27.5 MS. The “mean interevent duration time” value (M2 MspA; […] KCl/1.0M CaCl2, +100 mV) was 365.1 ± 27.9 MS, the “mean dwell time (τoff), mean ± std” value (M2 MspA; […] KCl/1.0M CaCl2, +100 mV, listed as APO-MYOGLOBIN) was 531.0 ± 27.5 MS and the “mean dwell time (τoff), mean ± std” value (M2 MspA; […] KCl/[…] KCl, +100 mV) was 7.3±1.3 MS. For the same molecule, the “mean dwell time (τoff), mean ± std” value (M2 MspA; [3]) was 7.3 ± 1.3 MS, the “mean interevent duration time” value (M2 MspA; [3]) was 3640.4 ± 633.6 MS and the 1/τon (M2 MspA; concentration 0.04 (MM), +100 mV) was “(4.4 ± 0.5) × 10^−4 MS^−1”. For the same molecule, the 1/τon (M2 MspA; concentration 0.07 (MM), +100 mV) was “(9.9 ± 0.9) × 10^−3 MS^−1”, the 1/τon (M2 MspA; concentration 0.11 (MM), +100 mV) was “(2.1 ± 0.2) × 10^−3 MS^−1” and the 1/τon (M2 MspA; concentration 0.14 (MM), +100 mV) was “(2.8 ± 0.2) × 10^−3 MS^−1”.

Reference: US12613234B2, “Structural-profiling of analytes by nanopore trapping” (NANJING UNIVERSITY, priority 2021, dated 2026)
